This experiment has as its target T1, SIRT1 (Homo sapiens, UniProt Q96EB6).
T1 sequence (Q96EB6 1-747): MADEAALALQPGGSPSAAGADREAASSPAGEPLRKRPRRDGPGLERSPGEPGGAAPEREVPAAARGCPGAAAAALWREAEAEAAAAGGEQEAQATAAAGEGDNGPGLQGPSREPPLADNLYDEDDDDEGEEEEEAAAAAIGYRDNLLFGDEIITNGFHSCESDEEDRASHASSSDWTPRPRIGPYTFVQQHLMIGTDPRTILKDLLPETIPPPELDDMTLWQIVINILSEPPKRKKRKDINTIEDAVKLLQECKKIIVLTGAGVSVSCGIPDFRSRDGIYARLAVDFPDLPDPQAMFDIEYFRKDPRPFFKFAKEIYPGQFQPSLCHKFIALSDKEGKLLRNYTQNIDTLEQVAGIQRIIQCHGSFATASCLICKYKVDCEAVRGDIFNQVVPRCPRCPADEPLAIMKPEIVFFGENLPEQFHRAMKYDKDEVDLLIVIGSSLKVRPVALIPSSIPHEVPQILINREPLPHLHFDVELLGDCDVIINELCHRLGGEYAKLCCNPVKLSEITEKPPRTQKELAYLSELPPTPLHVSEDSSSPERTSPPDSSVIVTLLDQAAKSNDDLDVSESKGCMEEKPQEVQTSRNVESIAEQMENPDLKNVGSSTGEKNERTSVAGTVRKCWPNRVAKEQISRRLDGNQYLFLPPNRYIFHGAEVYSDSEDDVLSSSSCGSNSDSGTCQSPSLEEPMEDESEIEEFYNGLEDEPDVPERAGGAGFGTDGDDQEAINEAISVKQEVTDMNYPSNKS
The experiment in a line: mass spectrometry based SIRT1 deacetylation assay (activation). Format: biochemical. Particulars: 0.5 μM peptide substrate, 120 μM βNAD+, 10 nM SIRT1, 25 min at 25° C.; for EC1.5 (concentration of test compound that results in 150% activation of SIRT1): NA = not active in the assay; for Emax: read-out: % FOLD ACT. (percent maximum fold activation of SIRT1).

Each structure is given as a SMILES string.

On to `O=C1CN(Cc2cnc3sc(-c4ccccc4NC(=O)c4ccc5ccccc5n4)nc3c2)CCN1` [Compound 103], for which the “EC1.5 (concentration of test compound that results in 150% activation of SIRT1)” value stood at 230 NM and the Emax came to 273%.
Turning to `O=C(Nc1ccccc1-c1nc2cc(CN3CC[C@@H](O)C3)cnc2s1)c1ccc2ccccc2n1` [Compound 104], the “EC1.5 (concentration of test compound that results in 150% activation of SIRT1)” value is listed as 200 NM and the Emax came out at 221%.
For `COc1cc(C(=O)Nc2ccccc2-c2nc3cc(CN4CCOCC4)cnc3s2)nc2ccccc12` [Compound 105] the same measures were 1590 NM and 292%.
The corresponding values for `O=C(Nc1ccccc1-c1nc2cc(CN3CCOCC3)cnc2s1)c1cnc2ccccc2c1` [Compound 106] are 69840 NM and 189%.
The corresponding values for `O=C(Nc1ccccc1-c1nc2cc(CN3CCOCC3)cnc2s1)c1ccc2cccnc2n1` [Compound 107] are 500 NM and 219%.
In the case of `O=C(Nc1ccccc1-c1nc2cc(CN3CCSCC3)cnc2s1)c1ccc2ccccc2n1` [Compound 108], the “EC1.5 (concentration of test compound that results in 150% activation of SIRT1)” value was determined as 1060 NM and the Emax stood at 178%.
For `N[C@@H]1CCN(Cc2cnc3sc(-c4ccccc4NC(=O)c4ccc5ccccc5n4)nc3c2)C1` [Compound 109] the same measures were 270 NM and more than 500%.
The corresponding values for `O=C(Nc1ccccc1-c1nc2cc(CN3CC[C@H](O)C3)cnc2s1)c1ccc2ccccc2n1` [Compound 110] are 230 NM and 307%.
Regarding `O=C(Nc1ccccc1-c1nc2cc(CN3CCOCC3)cnc2s1)c1cn2ccccc2n1` [Compound 111], the “EC1.5 (concentration of test compound that results in 150% activation of SIRT1)” value is listed as 1610 NM and the Emax came to 427%.
The corresponding values for `O=C(Nc1ccccc1-c1nc2cc(CN3CCOCC3)cnc2s1)c1cn2cccnc2n1` [Compound 112] are 2330 NM and 375%.
For `O=C(Nc1ccccc1-c1nc2cc(CN3CC[C@@H](F)C3)cnc2s1)c1ccc2ccccc2n1` [Compound 113] the same measures were 370 NM and 232%.
Consider `O=C(Nc1ccccc1-c1nc2cc(CN3CCC(F)CC3)cnc2s1)c1ccc2ccccc2n1` [Compound 114], for which the Emax was 146%.
For `NC1CCN(Cc2cnc3sc(-c4ccccc4NC(=O)c4ccc5ccccc5n4)nc3c2)CC1` [Compound 115], the “EC1.5 (concentration of test compound that results in 150% activation of SIRT1)” value is reported as 620 NM and the Emax was more than 500%.
The corresponding values for `O=C(Nc1ccccc1-c1nc2cc(CNC3CCNCC3)cnc2s1)c1ccc2ccccc2n1` [Compound 116] are 270 NM and more than 500%.
For `O=C(Nc1ccccc1-c1nc2cc(CN[C@H]3CC[C@H](O)CC3)cnc2s1)c1ccc2ccccc2n1` [Compound 117], the “EC1.5 (concentration of test compound that results in 150% activation of SIRT1)” value came out at 480 NM and the Emax turned out to be 324%.
Regarding `O=C(Nc1ccccc1-c1nc2cc(CN3CCCC(F)(F)C3)cnc2s1)c1ccc2ccccc2n1` [Compound 118], the Emax amounted to 100%.
In the case of `N[C@@H]1CCN(Cc2cnc3sc(-c4ccccc4NC(=O)c4ccc5ccccc5n4)nc3c2)C1` [Compound 119], the “% FOLD ACT. (percent maximum fold activation of SIRT1)” value is recorded as more than 500% and the “EC1.5 (concentration of test compound that results in 150% activation of SIRT1)” value was 390 NM.
With `O=C(Nc1ccccc1-c1nc2cc(CN[C@H]3CCNC3)cnc2s1)c1ccc2ccccc2n1` [Compound 120], the “EC1.5 (concentration of test compound that results in 150% activation of SIRT1)” value stood at 820 NM and the Emax is more than 500%.
As for `O=C(Nc1ccccc1-c1nc2cc(CN[C@@H]3CCC[C@H]3O)cnc2s1)c1ccc2ccccc2n1` [Compound 121], the “EC1.5 (concentration of test compound that results in 150% activation of SIRT1)” value came out at 750 NM and the Emax amounted to 291%.
The corresponding values for `O=C(Nc1ccccc1-c1nc2cc(CN3CCNCC3)cnc2s1)c1cn2ccccc2n1` [Compound 123] are 1940 NM and 400%.
The corresponding values for `O=C(Nc1ccccc1-c1nc2cc(CN3CCNCC3)cnc2s1)c1cn2cc(F)ccc2n1` [Compound 124] are 1060 NM and 314%.
As for `O=C(Nc1ccccc1-c1nc2cc(CN3CCNCC3)cnc2s1)c1cn2cc(Cl)ccc2n1` [Compound 125], the Emax amounted to 437%.
Same read-out and setting: for `O=C(Nc1ccccc1-c1nc2cc(CN3CCNCC3)cnc2s1)c1nc2ccc(F)cc2o1` [Compound 126] the value was 100%.
For the molecule `O=C(Nc1ccccc1-c1nc2cc(CN3CCOCC3)cnc2s1)c1cn2cc(Cl)ccc2n1` [Compound 127], the Emax was 143%.
Turning to `O=C(Nc1ccccc1-c1nc2cc(CN3CCOCC3)cnc2s1)c1cn2cc(F)ccc2n1` [Compound 128], the “EC1.5 (concentration of test compound that results in 150% activation of SIRT1)” value was found to be 1310 NM and the Emax is 227%.
Regarding `O=C(Nc1ccccc1-c1nc2cc(CN3CC[C@@H](F)C3)cnc2s1)c1cn2cc(C(F)(F)F)ccc2n1` [Compound 129], the Emax is 100%.
On to `COCCN1CCN(Cc2cnc3sc(-c4ccccc4NC(=O)c4cnc5ccccc5n4)nc3c2)CC1` [Compound 130], for which the “EC1.5 (concentration of test compound that results in 150% activation of SIRT1)” value is listed as 990 NM and the Emax was found to be 161%.
The corresponding values for `COCCN1CCN(Cc2cnc3sc(-c4ccccc4NC(=O)c4cc(C)nc(-c5ccccc5)n4)nc3c2)CC1` [Compound 131] are 106 NM and 500%.
The corresponding values for `Cc1cc(C(=O)Nc2ccccc2-c2nc3cc(CN4CCOCC4)cnc3s2)nc(-c2ccccc2)n1` [Compound 132] are 215 NM and 500%.
The corresponding values for `COCCN1CCN(Cc2cnc3sc(-c4ccccc4NC(=O)c4cccc(-c5ccccc5Cl)n4)nc3c2)CC1` [Compound 133] are 90 NM and 500%.
Turning to `COCCN1CCN(Cc2cnc3sc(-c4ccccc4NC(=O)c4cccc(-c5ccccc5F)n4)nc3c2)CC1` [Compound 134], the “EC1.5 (concentration of test compound that results in 150% activation of SIRT1)” value is 69 NM and the Emax is 500%.
The corresponding values for `Cc1cc(C(=O)Nc2ccccc2-c2nc3cc(CN4CCCC4)cnc3s2)nc(-c2ccccc2)n1` [Compound 135] are 759 NM and 274%.
Regarding `COCCN1CCN(Cc2cnc3sc(-c4ccccc4NC(=O)c4cccc(-c5ccc(C(F)(F)F)cc5)n4)nc3c2)CC1` [Compound 136], the “EC1.5 (concentration of test compound that results in 150% activation of SIRT1)” value stood at 448 NM and the Emax was 461%.
The corresponding values for `COCCN1CCN(Cc2cnc3sc(-c4ccccc4NC(=O)c4cccc(-c5ccc(Cl)cc5)n4)nc3c2)CC1` [Compound 137] are 214 NM and 448%.
The corresponding values for `COCCN1CCN(Cc2cnc3sc(-c4ccccc4NC(=O)c4cccc(-c5cccc(Cl)c5)n4)nc3c2)CC1` [Compound 138] are 88 NM and 497%.
The corresponding values for `COCCN1CCN(Cc2cnc3sc(-c4ccccc4NC(=O)c4cccc(-c5ccccc5C(F)(F)F)n4)nc3c2)CC1` [Compound 139] are 230 NM and 457%.
With `COCCN1CCN(Cc2cnc3sc(-c4ccccc4NC(=O)c4cccc(-c5cccc(C(F)(F)F)c5)n4)nc3c2)CC1` [Compound 140], the “EC1.5 (concentration of test compound that results in 150% activation of SIRT1)” value was determined as 41 NM and the Emax came out at 500%.
The corresponding values for `COCCN1CCN(Cc2cnc3sc(-c4ccccc4NC(=O)c4cccc(-c5ccc(F)cc5)n4)nc3c2)CC1` [Compound 141] are 127 NM and 487%.
The corresponding values for `COCCN1CCN(Cc2cnc3sc(-c4ccccc4NC(=O)c4cccc(-c5ccc(F)cc5F)n4)nc3c2)CC1` [Compound 142] are 394 NM and 378%.
The corresponding values for `COCCN1CCN(Cc2cnc3sc(-c4ccccc4NC(=O)c4cccc(-c5ccccc5C#N)n4)nc3c2)CC1` [Compound 143] are 2121 NM and 372%.
On to `COCCN1CCN(Cc2cnc3sc(-c4ccccc4NC(=O)c4cccc(-c5ccc(C#N)cc5)n4)nc3c2)CC1` [Compound 144], for which the “EC1.5 (concentration of test compound that results in 150% activation of SIRT1)” value is 559 NM and the Emax came to 402%.

Values taken from patent publication US8268862B2, “Sirtuin modulating compounds” (Sirtris Pharmaceuticals, Inc., priority 2007, dated 2012).
